Assay results taken from patent US10111882B2, “SYK inhibitors” (Gilead Sciences, Inc., priority 2016, dated 2018).
Values joined by “and” are separate entries in the source; they are usually repeats but may differ in a detail not shown here. Equal values may be shown once.

Experiments:
[1] = clinical; Nijjar J. S., et al., Rheumatology 2013; cited from earlier work
[2] = system: patients with previously untreated AML; test: Phase 1b/2 study (NCT02343939): response (complete remission) to entospletinib monotherapy lead-in followed by daunorubicin/cytarabine induction; assay type: in vivo, human
Text: (§1) Patients with residual disease two weeks after chemotherapy received a second induction cycle identical to the first.

[3] = system: patients with previously untreated AML; test: Phase 1b/2 study (NCT02343939): platelet counts and platelet transfusions (FIG. 2, FIG. 3); assay type: in vivo, human; conditions: for mean number of platelet transfusions required per subject: across monotherapy lead-in and induction cycles; for mean number of transfusions required per subject: induction treatment
Text: as §1

[4] = system: patients with previously untreated AML; test: Phase 1b/2 study (NCT02343939): tolerability, dose limiting toxicity and adverse events
Text: as §1

[5] = system: patients with previously untreated AML; test: Phase 1b/2 study (NCT02343939): absolute neutrophil counts / neutrophil recovery (FIG. 1)
Text: as §1

Question: With `COc1cc(Nc2ncc(F)c(Nc3ccc4c(n3)N(COP(=O)(O)O)C(=O)C(C)(C)O4)n2)cc(OC)c1OC` [Fostamatinib] as the compound, how does the adverse side effects [1] read?
Answer: hypertension, neutropenia and transaminitis

Question: With `c1cn2cc(-c3ccc4cn[nH]c4c3)nc(Nc3ccc(N4CCOCC4)cc3)c2n1` [entospletinib] as the compound, how does the “patients requiring a second induction” value ([2]; 200 mg BID, 3 patients) read?
Answer: two required a second induction

Question: What about the “patients requiring a second induction” value ([2]; 400 mg BID, 6 patients) of the same compound?
Answer: none required a second induction

Question: And the “response after the 14 day entospletinib monotherapy window” value ([2]; person with 11q23-rearranged AML, prior to chemotherapy)?
Answer: morphologic and cytogenetic CR

Question: And the “platelet transfusions during monotherapy window” value ([3]; 200 mg dose level)?
Answer: One subject received platelet transfusions

Question: What about the “platelet transfusions during monotherapy window” value ([3]; 400 mg dose level) of the same compound?
Answer: no transfusions were required

Question: And the “mean number of platelet transfusions required per subject” value ([3]; 200 mg dose level)?
Answer: 8.7

Question: And the “mean number of platelet transfusions required per subject” value ([3]; 400 mg dose level)?
Answer: 4.1

Question: What about the “mean number of platelet transfusions required per subject” value ([3]; overall (both dose levels)) of the same compound?
Answer: 5.5

Question: What about the “platelet response during the window period” value ([3]; another patient with 11q23-rearranged AML, monotherapy window) of the same compound?
Answer: significant platelet response

Question: What about the “mean number of transfusions required per subject” value ([3]; Cycle 1 (with daunorubicin/cytarabine)) of the same compound?
Answer: 4.1

Question: What about the “mean number of transfusions required per subject” value ([3]; Cycle 2 (with daunorubicin/cytarabine)) of the same compound?
Answer: 5.5

Question: What about the platelet count ([3]; two week entospletinib monotherapy window) of the same compound?
Answer: remained stable, or in some cases, improved from baseline

Question: And the “dose limiting toxicity (DLT)” value ([4]; 200 mg BID po, three patients)?
Answer: no DLT was observed

Question: And the “dose limiting toxicity (DLT)” value ([4]; 400 mg BID po, 3 additional patients (DL 1 expansion))?
Answer: none of whom experienced DLT

Question: And the “adverse event possibly related to entospletinib” value ([4]; 400 mg BID po, one of three patients (documented fungal pneumonia), did not meet DLT criteria)?
Answer: grade 3 pneumonitis

Question: What about the “tolerability of single-agent entospletinib” value ([4]; monotherapy window period (up to 14 days), before chemotherapy) of the same compound?
Answer: well tolerated

Question: And the “most common non hematologic adverse events” value ([4]; overall, inclusive of intensive chemotherapy periods (daunorubicin + cytarabine))?
Answer: febrile neutropenia, nausea, and diarrhea

Question: And the “recovery time from severe neutropenia” value ([5]; 200 mg dose level, only evaluable subject with severe neutropenia at baseline)?
Answer: 66 days

Question: What about the “ANC recovered to during treatment” value ([5]; 400 mg dose level, all three evaluable subjects under severe neutropenia cutoff of 200/μL ANC at baseline) of the same compound?
Answer: above 200 /μL

Question: And the “individual time to recovery from severe neutropenia” value ([5]; 400 mg dose level, individual subjects with severe neutropenia at baseline)?
Answer: 8 days (2×) and 14 days

Question: And the “subjects experiencing severe neutropenia during monotherapy lead-in” value ([5]; 400 mg dose level, subjects without severe neutropenia at baseline, recovered to above 200/μL by end of first induction cycle)?
Answer: two of the five subjects

Question: What about the “median (Q1, Q3) time to recovery from severe neutropenia” value ([5]; 400 mg dose level, three subjects with severe neutropenia at baseline) of the same compound?
Answer: 8 (8, 14) days

Question: What about the “absolute neutrophil counts (ANC)” value ([5]; entospletinib monotherapy lead-in period) of the same compound?
Answer: remained largely stable

Question: And the “severe neutropenia during induction treatment” value ([5]; five subjects (both dose levels) without severe neutropenia at baseline)?
Answer: none experienced severe neutropenia
